Like-named read-outs stand apart in the source and are kept apart here.
Key:
Format in all cases: cell-based
168 GPCRs [1] = molecular target: T1, 168 GPCRs (Homo sapiens, UniProt P21730)
T1 construct: host or cells: PathHunter cell lines
T1 sequence (P21730 1-350): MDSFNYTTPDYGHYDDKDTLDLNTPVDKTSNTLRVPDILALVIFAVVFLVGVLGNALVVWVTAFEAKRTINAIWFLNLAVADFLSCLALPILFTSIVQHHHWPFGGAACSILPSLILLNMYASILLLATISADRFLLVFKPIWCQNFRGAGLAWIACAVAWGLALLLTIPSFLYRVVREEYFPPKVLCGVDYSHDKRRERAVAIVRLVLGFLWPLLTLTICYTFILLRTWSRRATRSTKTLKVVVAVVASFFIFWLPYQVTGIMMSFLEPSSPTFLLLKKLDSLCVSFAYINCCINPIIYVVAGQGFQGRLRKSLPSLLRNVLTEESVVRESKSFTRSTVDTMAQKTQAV

168 GPCRs [2] = molecular target: T2, 168 GPCRs (Homo sapiens, UniProt P34998)
T2 construct: host or cells: PathHunter cell lines
T2 sequence (P34998 24-415): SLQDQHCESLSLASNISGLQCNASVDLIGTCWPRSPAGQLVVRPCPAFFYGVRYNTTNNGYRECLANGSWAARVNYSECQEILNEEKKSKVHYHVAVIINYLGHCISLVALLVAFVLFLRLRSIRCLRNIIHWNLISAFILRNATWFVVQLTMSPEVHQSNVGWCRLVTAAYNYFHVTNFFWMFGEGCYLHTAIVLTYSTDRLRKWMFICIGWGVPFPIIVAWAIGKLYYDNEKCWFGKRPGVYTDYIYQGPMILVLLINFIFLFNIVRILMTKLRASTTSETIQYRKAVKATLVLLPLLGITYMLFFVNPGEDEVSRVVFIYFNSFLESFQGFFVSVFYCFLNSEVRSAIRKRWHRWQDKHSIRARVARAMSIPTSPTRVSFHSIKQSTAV

168 GPCRs [3] = molecular target: T3, 168 GPCRs (Homo sapiens, UniProt P43115); conditions: PTGER3
T3 construct: host or cells: PathHunter cell lines
T3 sequence (P43115 1-390): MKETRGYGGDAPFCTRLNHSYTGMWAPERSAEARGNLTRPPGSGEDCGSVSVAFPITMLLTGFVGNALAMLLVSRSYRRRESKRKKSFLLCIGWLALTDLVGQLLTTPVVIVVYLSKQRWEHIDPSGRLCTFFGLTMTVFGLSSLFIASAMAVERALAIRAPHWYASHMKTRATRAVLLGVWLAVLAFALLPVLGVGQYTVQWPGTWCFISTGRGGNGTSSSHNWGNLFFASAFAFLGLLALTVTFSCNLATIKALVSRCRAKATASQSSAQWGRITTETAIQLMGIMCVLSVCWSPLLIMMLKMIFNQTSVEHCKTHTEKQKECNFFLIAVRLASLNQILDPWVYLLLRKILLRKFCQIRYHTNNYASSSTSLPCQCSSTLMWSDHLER

168 GPCRs [4] = molecular target: T4, 168 GPCRs (Homo sapiens, UniProt P51677)
T4 construct: host or cells: PathHunter cell lines
T4 sequence (P51677 1-355): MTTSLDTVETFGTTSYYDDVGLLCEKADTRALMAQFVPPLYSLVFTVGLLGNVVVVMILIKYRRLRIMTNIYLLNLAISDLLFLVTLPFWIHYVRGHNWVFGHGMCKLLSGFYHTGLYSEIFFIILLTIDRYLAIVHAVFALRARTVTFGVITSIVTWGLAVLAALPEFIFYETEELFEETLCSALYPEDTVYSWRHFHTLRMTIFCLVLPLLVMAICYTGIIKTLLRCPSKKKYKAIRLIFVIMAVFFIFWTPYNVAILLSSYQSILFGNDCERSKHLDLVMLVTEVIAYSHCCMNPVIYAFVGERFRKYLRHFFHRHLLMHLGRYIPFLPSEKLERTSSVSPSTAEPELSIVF

168 GPCRs [5] = molecular target: T5, 168 GPCRs (Homo sapiens, UniProt P51679)
T5 construct: host or cells: PathHunter cell lines
T5 sequence (P51679 1-360): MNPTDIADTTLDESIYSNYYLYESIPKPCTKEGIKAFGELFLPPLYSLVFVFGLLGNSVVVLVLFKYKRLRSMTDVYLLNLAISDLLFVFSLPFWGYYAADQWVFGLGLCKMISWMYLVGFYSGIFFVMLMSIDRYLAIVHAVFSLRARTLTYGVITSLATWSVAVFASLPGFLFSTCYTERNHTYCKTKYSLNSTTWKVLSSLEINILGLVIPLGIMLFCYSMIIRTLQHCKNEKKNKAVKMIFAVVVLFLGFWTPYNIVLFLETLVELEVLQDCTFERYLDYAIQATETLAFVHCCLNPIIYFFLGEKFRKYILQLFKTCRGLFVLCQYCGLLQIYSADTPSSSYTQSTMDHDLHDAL

168 GPCRs [6] = molecular target: T6, 168 GPCRs (Homo sapiens, UniProt Q99500)
T6 construct: host or cells: PathHunter cell lines
T6 sequence (Q99500 whole entry): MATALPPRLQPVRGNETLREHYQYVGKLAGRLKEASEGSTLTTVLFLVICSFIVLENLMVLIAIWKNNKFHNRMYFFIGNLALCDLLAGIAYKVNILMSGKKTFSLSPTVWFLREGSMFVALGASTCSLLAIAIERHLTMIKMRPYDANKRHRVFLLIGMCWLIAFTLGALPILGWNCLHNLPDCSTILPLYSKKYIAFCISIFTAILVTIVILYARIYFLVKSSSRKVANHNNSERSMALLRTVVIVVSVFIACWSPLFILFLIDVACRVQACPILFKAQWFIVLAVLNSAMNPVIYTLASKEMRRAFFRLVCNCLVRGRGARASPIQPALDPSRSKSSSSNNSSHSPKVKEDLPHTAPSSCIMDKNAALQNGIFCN

| SMILES | % Agonist Activity (168 GPCRs [1]; C5aR1, 1 uM) [%] | % Antagonist Activity (168 GPCRs [1]; C5aR1, 1 uM) [%] | % Agonist Activity (168 GPCRs [1]; C5aR1, 10 uM) [%] | % Antagonist Activity (168 GPCRs [1]; C5aR1, 10 uM) [%] | % Agonist Activity (168 GPCRs [2]; CRHR1, 1 uM) [%] | % Antagonist Activity (168 GPCRs [2]; CRHR1, 1 uM) [%] | % Agonist Activity (168 GPCRs [2]; CRHR1, 10 uM) [%] | % Antagonist Activity (168 GPCRs [2]; CRHR1, 10 uM) [%] | % Agonist Activity (168 GPCRs [3]; Conc 1 uM) [%] | % Antagonist Activity (168 GPCRs [3]; Conc 1 uM) [%] | % Agonist Activity (168 GPCRs [3]; Conc 10 uM) [%] | % Antagonist Activity (168 GPCRs [3]; Conc 10 uM) [%] | % Agonist Activity (168 GPCRs [4]; CCR3, 1 uM) [%] | % Antagonist Activity (168 GPCRs [4]; CCR3, 1 uM) [%] | % Agonist Activity (168 GPCRs [4]; CCR3, 10 uM) [%] | % Antagonist Activity (168 GPCRs [4]; CCR3, 10 uM) [%] | % Agonist Activity (168 GPCRs [5]; CCR4, 1 uM) [%] | % Antagonist Activity (168 GPCRs [5]; CCR4, 1 uM) [%] | % Agonist Activity (168 GPCRs [5]; CCR4, 10 uM) [%] | % Antagonist Activity (168 GPCRs [5]; CCR4, 10 uM) [%] | other results |
| --- | --- | --- | --- | --- | --- | --- | --- | --- | --- | --- | --- | --- | --- | --- | --- | --- | --- | --- | --- | --- | --- |
| CNC(C)C(=O)c1ccc2c(c1)OCO2 (stereo not drawn) [methylone] | -1 | 8.9 | -1.3 | 5 | 1.4 | 1.3 | 1.1 | 0.6 | 4.5 | -6.2 | 1.9 | -5.7 | -6.7 | -11.8 | -7.6 | -4 | -0.5 | 10 | -1.4 | 9.5 | % Agonist Activity (168 GPCRs [6]; EDG3, 1 uM): -9.4%; % Antagonist Activity (168 GPCRs [6]; EDG3, 1 uM): 25.8%; % Agonist Activity (168 GPCRs [6]; EDG3, 10 uM): -8.6%; % Antagonist Activity (168 GPCRs [6]; EDG3, 10 uM): 13.6% |
| CNC(C)Cc1ccc2c(c1)OCO2 (stereo not drawn) [MDMA, 3,4-Methylenedioxy methamphetamine, reference compound] | -1.1 | -5.5 | -1.1 | -4.3 | 0.7 | -1.7 | 0.2 | 0.2 | 3.5 | 5.2 | 3.6 | 4.2 | -1.5 | 1.5 | -1.3 | 9.6 | 0.1 | 7.7 | 0.1 | 13 | % Agonist Activity (168 GPCRs [6]; EDG3, 1 uM): -1.7%; % Antagonist Activity (168 GPCRs [6]; EDG3, 1 uM): 8.8%; % Agonist Activity (168 GPCRs [6]; EDG3, 10 uM): -1.1%; % Antagonist Activity (168 GPCRs [6]; EDG3, 10 uM): 11% |

Source: publication PMC10882719 (Frontiers in Neuroscience, 2024)
